Assay results reported in US6989393B2, “Ccr5 modulators benzimidazoles or benzotriazoles” (AstraZeneca AB, priority 2000, dated 2006).

| melting point | Structure (SMILES) |
| --- | --- |
| 172 to 173 °C | N#CC(CCN1CCC(n2cnc3ccccc32)CC1)(c1ccccc1)c1ccccc1 [Example 19, 1-[1-(3-Cyano-3,3-diphenylpropyl)-piperidin-4-yl]benzimidazole] |
| 156 to 157 °C | c1ccc(C(CCN2CCC(n3cnc4ccccc43)CC2)c2ccccc2)cc1 [Example 2, 1-[1-(3,3-Diphenylpropyl)-piperidin-4-yl]benzimidazole] |
